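Briefly, cells in 96-well plates were exposed to five compound concentrations for 48 h, and endpoints were estimated by linear interpolation. GI50 = concentration required for 50% inhibition of growth. TGI marks complete inhibition of growth.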 Where a SMILES comes first, the peptide text is derived from it. Bridges are numbered along the chain shown (N, C = ends). [ ]: non-standard residue; d: D form. The star is where a group is joined. ξ: configuration not given here. Cbz = O=C(OCc1ccccc1)*; ξD = NC(CC(=O)O)C(=O)O; Ac3c = NC1(C(=O)O)CC1; Boc = CC(C)(C)OC(=O)*; OtBu = CC(C)(C)O*
Assays:
Assay in all cases: NCI tumour cell line growth inhibition, 48 h
M14 melanoma = tested on: M14 melanoma
SNB-75 CNS = tested on: SNB-75 CNS
OVCAR-4 ovarian = tested on: OVCAR-4 ovarian
LOX IMVI melanoma = tested on: LOX IMVI melanoma
NCI/ADR-RES ovarian = tested on: NCI/ADR-RES ovarian
SF-295 CNS = tested on: SF-295 CNS
SN12C renal = tested on: SN12C renal
MDA-N = tested on: MDA-N
HOP-62 NSCLC = tested on: HOP-62 NSCLC
A549 NSCLC = tested on: A549 NSCLC

Row | Compound | TGI (M14 melanoma) [µM] | TGI (SNB-75 CNS) [µM] | TGI (OVCAR-4 ovarian) [µM] | TGI (LOX IMVI melanoma) [µM] | TGI (NCI/ADR-RES ovarian) [µM] | TGI (SF-295 CNS) [µM] | TGI (SN12C renal) [µM] | TGI (MDA-N) [µM] | TGI (HOP-62 NSCLC) [µM] | TGI (A549 NSCLC) [µM] | GI50 (SNB-75 CNS) [µM] | GI50 (OVCAR-4 ovarian) [µM]
1 | COC1=CC(=O)c2c(O)c3c(c(O)c2C1=O)C[C@](C)(O)C[C@@H]3O | 8.59 | 28 | 13.1 | 10.1 | 29 | 11.5 | 13 | 3.35 | 19.7 | 9.81 | – | –
2 | CC(C)C(C/C=C1/CC(CO)(COC(=O)C2CCCCC2)OC1=O)C(C)C (configuration not stated) | 38.8 | 28.8 | 41.4 | 29.4 | 42.7 | 29 | 31.9 | 38.8 | 26.9 | 26.4 | – | –
3 | COC(=O)C1CCCCNC(=O)CCC(NC(=O)OCc2ccccc2)C(=O)N1 (stereo not drawn) (Cbz-Glu-Lys-OMe; lactam 1-2; configuration not given here) | > 100 | > 100 | > 100 | > 100 | > 100 | > 100 | > 100 | > 100 | > 100 | > 100 | – | –
4 | N=C(N)SCCCN | 14.2 | > 100 | > 30.9 | 13.6 | > 62.1 | > 66.8 | 69.8 | 26 | 35.7 | > 100 | – | –
5 | Cn1c2c(c3ccccc31)CCN1C(=O)C3SC21C1C(=O)N(c2ccccc2)C(=O)C31 (configuration not stated) | > 100 | > 100 | > 100 | > 100 | > 100 | > 100 | > 100 | > 100 | > 100 | > 100 | 13.4 | –
6 | C[C@@H]1CC[C@@H](C)[C@](C)(CCc2ccoc2)C/C=C\C=C/1C(=O)O | > 50 | > 50 | > 50 | > 50 | > 50 | > 50 | > 50 | > 50 | > 50 | > 50 | – | –
7 | [N-]=[N+]=NC[C@H]1OCO[C@H](CN=[N+]=[N-])[C@H]2OCCOCCOc3ccccc3OCCOCCO[C@@H]21 | > 100 | > 100 | > 100 | > 100 | > 100 | > 100 | > 100 | > 100 | > 100 | > 100 | – | –
8 | CCOP(=O)(OCC)C1(O)CC(n2cc(C)c(=O)[nH]c2=O)OC1CO (configuration not stated) | > 100 | > 100 | > 100 | > 100 | > 100 | > 100 | > 100 | > 100 | > 100 | > 100 | – | –
9 | N#Cc1c(Nc2nc3ccccc3s2)c2ccccc2n2c1nc1ccccc12 | > 100 | 81 | > 100 | > 100 | > 100 | > 100 | > 100 | > 100 | > 100 | > 100 | – | –
10 | Cc1cc(O)ccc1C1(c2ccc(F)cc2)OC(=O)c2ccccc21 (configuration not stated) | 27.1 | 8.01 | 1.08 | 6.65 | 2.25 | 14.2 | 8.23 | 25 | 19.7 | 18.3 | – | –
11 | CCOC(=O)/C(C#N)=C(/NNc1ccccc1)c1ccncc1C(=O)O | > 100 | > 100 | > 100 | > 100 | > 100 | > 100 | > 100 | > 100 | > 100 | > 100 | – | –
12 | COC(=O)C1(NC(=O)C(CC(=O)OC(C)(C)C)NC(=O)OC(C)(C)C)CC1 (configuration not stated) (Boc-[ξD](OtBu)-[Ac3c]-OMe) | > 100 | > 100 | > 100 | > 100 | > 100 | > 100 | > 100 | > 100 | > 100 | > 100 | – | –
13 | S=C(N/N=C\c1ccccn1)N(Cc1ccccn1)Cc1ccccn1 | 43.7 | 20.2 | 18.7 | 12.6 | 5.2 | 16.3 | 25.7 | 47.9 | 41.7 | > 42 | – | –
14 | O=C1CCC2(O)C3Cc4ccc(Oc5nnnn5-c5ccccc5)c5c4C2(CCN3CC2CC2)C1O5 (configuration not stated) | 33.5 | > 100 | > 100 | 84.6 | > 100 | > 100 | > 100 | 51 | > 100 | > 100 | – | –
15 | C=C(Br)CNCC(=C)Br | > 100 | > 100 | > 100 | > 100 | > 100 | > 100 | > 100 | > 100 | > 100 | > 100 | – | –
16 | O=S(=O)(O)c1cc(O)c2c(O)c(N=Nc3cccc4ccccc34)c(S(=O)(=O)O)cc2c1 | > 100 | > 100 | > 100 | > 100 | > 100 | > 100 | > 100 | > 100 | > 100 | > 100 | – | –
17 | OC(CCN1CCN(CCOC(c2ccccc2)c2ccccc2)CC1)c1ccc(Br)cc1 (configuration not stated) | 11.2 | 27.5 | 38.6 | 23.5 | 21.9 | 29.8 | 25.2 | 22.9 | 32 | 30.5 | – | –
18 | CC(C)(C)OC(=O)NCC(=O)NC1C/C(=N\O)c2sccc21 (configuration not stated) | > 100 | > 100 | > 100 | > 100 | > 100 | > 100 | > 100 | > 100 | > 100 | > 100 | – | –
19 | CCOC(=O)c1c(N2CCOCC2)[nH]c(=O)c(C(c2cccs2)c2c(O)c(C(=O)OCC)c(N3CCOCC3)[nH]c2=O)c1O | > 100 | > 100 | > 100 | > 100 | > 100 | > 100 | > 100 | > 100 | > 100 | > 100 | – | –

Row | Compound | TGI (M14 melanoma) [µM] | TGI (SNB-75 CNS) [µM] | TGI (OVCAR-4 ovarian) [µM] | TGI (LOX IMVI melanoma) [µM] | TGI (NCI/ADR-RES ovarian) [µM] | TGI (SF-295 CNS) [µM] | TGI (SN12C renal) [µM] | TGI (MDA-N) [µM] | TGI (HOP-62 NSCLC) [µM] | TGI (A549 NSCLC) [µM] | GI50 (SNB-75 CNS) [µM] | GI50 (OVCAR-4 ovarian) [µM]
20 | CCCCc1ccc(-n2sc3ncccc3c2=O)cc1 | 26.8 | 50.3 | 58 | 43.6 | 43.9 | 31.2 | 37.7 | 29.3 | 36.2 | 99.4 | – | –
21 | COc1cc(/C=C2\Cc3cc(OC)c(OC)cc3C2=O)cc(OC)c1 | > 100 | > 100 | > 88.7 | > 100 | > 100 | 41.7 | > 100 | 39.2 | > 80.1 | > 100 | – | –
22 | COc1ccc(/C(=N/Nc2nc3ccccc3[nH]2)C(=O)O)cc1 | > 100 | > 100 | > 100 | > 100 | > 100 | > 100 | > 100 | > 100 | > 100 | > 100 | – | –
23 | Oc1nc(N/N=C/c2ccccc2)[nH]c1/C=C1\C=Nc2ccccc21 | > 100 | > 100 | > 100 | > 100 | > 100 | > 100 | > 100 | > 100 | > 100 | > 100 | – | –
24 | Nc1ccc(-c2nc3ccc(F)cc3s2)cc1 | > 100 | 95 | > 100 | > 100 | > 100 | 60.7 | > 100 | > 100 | 90.8 | > 100 | – | 23.1
25 | O=C(/C=C(\O)c1ccccc1)/C(=C/C(=O)c1ccccc1)NN=C(c1ccccc1)c1ccccc1 | 72.6 | > 100 | > 100 | > 100 | 77.6 | > 100 | > 100 | > 100 | > 100 | > 100 | – | –
26 | COc1ccc2c(c1)CC1Cc3ccccc3CCN1C2 (configuration not stated) | > 100 | > 100 | > 100 | 51.8 | > 100 | > 100 | > 100 | > 100 | > 100 | > 100 | – | –
27 | N#CC12C(=O)N3C(=NC(c4ccccc4)NC3c3ccccc3)C1(C#N)C(c1ccccc1)NC1=C2CCCC1 (configuration not stated) | > 100 | > 100 | > 100 | > 100 | > 100 | > 100 | > 100 | > 100 | > 100 | > 100 | – | –
28 | ONC1=Nc2ccccc2OCc2cc(Br)c(Br)cc2COc2ccccc2N=C1NO | > 54.2 | > 54.7 | > 52.6 | 45.1 | > 53.7 | > 53.6 | 27.3 | 34.1 | 38.9 | > 54 | – | –
29 | CNC(=S)N/N=C(\C)c1nc2ncccc2[nH]1 | > 100 | > 100 | > 100 | > 100 | 29.7 | > 100 | > 100 | > 100 | > 100 | > 100 | – | –
30 | CC(NNC(=O)c1ccncc1)c1ccc(Cl)c(Cl)c1 (configuration not stated) | > 100 | > 100 | > 100 | > 100 | > 100 | > 100 | > 100 | > 100 | > 100 | > 100 | – | –
31 | COc1cc(/C=N\NC(=O)C[N+](C)(C)C)cc(OC)c1OC | > 10 | > 10 | > 10 | > 10 | > 10 | > 10 | > 10 | > 10 | > 10 | > 10 | – | –
32 | CN(CCc1ccc(Cl)c(Cl)c1)CCN(C)CCN1CCCC1 | 9.88 | 31.5 | > 100 | 20.1 | > 72.7 | 32.4 | 40.2 | 3.74 | 34.9 | 28.3 | – | –
33 | c1csc(-c2csc(-c3ccsc3)c2)c1 | > 100 | > 100 | > 100 | > 100 | > 100 | > 100 | > 100 | > 100 | > 100 | > 100 | – | –
34 | COc1ccc2c(-c3ccc(OCCN(C)C)cc3)c(Oc3ccc(Cl)cc3)c(=O)oc2c1 | 3.23 | 27.6 | > 95.7 | 4.3 | > 62.5 | 5.42 | > 53.3 | 4.39 | > 100 | 18.7 | – | –
35 | COc1ccc2c(c1OC)C(=O)O[C@@H]2[C@H]1c2cc3c(cc2CCN1C)OCO3 | > 100 | > 100 | > 100 | > 100 | > 100 | > 100 | > 100 | > 100 | > 100 | > 100 | – | –
36 | N#CC1(c2ccccc2)CCN(C2(c3ccccc3)CCCCC2)CC1 | > 100 | > 100 | > 100 | > 100 | > 100 | > 100 | > 100 | > 100 | > 100 | > 100 | – | –
37 | COc1cc([C@H]2Oc3c(OC)cc(CCCO)cc3[C@@H]2CO)ccc1O | > 100 | > 100 | > 100 | > 100 | > 100 | > 100 | > 100 | > 100 | > 100 | > 100 | – | –
38 | CC(=O)CC(C)(C)NC(=O)[C@@]1(O)CC[C@H]2[C@@H]3CCC4=CC(=O)CC[C@@H]4[C@H]3CC[C@@]21C | > 100 | > 100 | > 100 | > 100 | > 100 | > 100 | > 100 | > 100 | > 100 | > 100 | – | –
